# In patent US20250339441A1, “METHODS OF TREATING CANCER” (FOGHORN THERAPEUTICS INC., priority 2022, published 2025):
# Experiments:
# [1] = Population PK model (nonlinear mixed-effects, two-compartment) of oral Compound A patient concentration vs. time data; format: in vivo, human
# Procedure: A population PK model based on orally administered Compound A dosing data in a total of 10 patients with metastatic uveal melanoma (UM) and advanced hematologic malignancies (e.g., acute myeloid leukemia (AML)) was performed.
# Nonlinear mixed-effects models were fitted to concentration vs. time data of FHD-286. Various compartmental models with linear elimination (1-, 2- and 3-compartment), absorption models, structures of omega on clearances, volumes and absorption parameters (diagonal and block) were developed to assess the PK of Compound A.
# Overall, a two-compartment model with linear elimination, a zero-order oral absorption, and a lag time of absorption adequately characterized the concentration-time profiles of Compound A.
# Exploratory analysis of covariate effects was performed with appropriate plots presenting relationships between the ETAs (e.g., values reflecting the difference between and individual's parameter value and that of the population) of PK parameters to identify any remaining covariate trends. […] Therefore a “Multiple Dose Effect” on CL was included in the model to account for this change over time.
# No other covariates were included as part of the model.
# [2] = Phase 1 dose escalation clinical trial of Compound A, oral, in subjects with metastatic uveal melanoma; format: in vivo
# Procedure: A Phase 1 dose escalation clinical trial of Compound A is conducted. The trial is primarily intended to determine the maximum tolerated dose (MTD) and/or recommended phase 2 dose of the compound when administered orally to subjects with metastatic uveal melanoma (UM).
# In this ongoing study, Compound A has been administered at dose levels of 2.5 mg once a day (QD), 5 mg QD, 7.5 mg QD, and 10 mg QD to 17 subjects with metastatic UM. […] In evaluable subjects, myeloid differentiation and reduction in bone marrow and/or peripheral blasts have been observed.
# [3] = final population PK model, oral, 10 patients
structure (smiles),measurement,setting,value
"COC[C@H](NC(=O)c1ccn(S(C)(=O)=O)c1)C(=O)Nc1nc(-c2cccc(N3C[C@@H](C)O[C@@H](C)C3)n2)cs1 [Compound A, N-(1-((4-(6-(2,6-dimethylmorpholino)pyridin-2-yl)thiazol-2-yl)amino)-3-methoxy-1-oxopropan-2-yl)-1-(methylsulfonyl)-1H-pyrrole-3-carboxamide]",change in clearance (CL) over time,[1]; after multiple doses,reduction
same,"CL, Estimate",[1]; [3],4.07 L/h
same,"CLp, Estimate",[1]; [3],30.6 L/h
same,"Tlag, Estimate (lag time of absorption)",[1]; [3],0.452 h
same,"Vc, Estimate",[1]; [3],54.6 L
same,"Vd, Estimate",[1]; [3],165 L
same,"Dur, Estimate (zero-order oral absorption)","[1]; final population PK model, oral, 10 patients with metastatic UM and advanced hematologic malignancies",1.77 h
same,myeloid differentiation,[2]; in evaluable subjects,observed
same,reduction in bone marrow and/or peripheral blasts,[2]; in evaluable subjects,observed
same,dose limiting toxicity,"[2]; one subject at the 7.5 mg QD dose level, improved with a dose hold",Grade 3 keratitis
same,half-life (preliminary PK analysis),"[2]; oral 2.5, 5, 7.5, 10 mg QD, 17 subjects with metastatic UM, preliminary",long
same,plasma concentrations of the compound versus dose,"[2]; oral 2.5-10 mg QD, subjects with metastatic UM, preliminary",increase with increasing dose
